Assay results taken from patent US20230167088A1, “1-PYRAZINYLPYRAZOLYL-3-OXYALKYL ACIDS AND THEIR DERIVATIVES, AND THEIR USE FOR CONTROL OF UNDESIRED PLANT GROWTH” (BAYER AKTIENGESELLSCHAFT, priority 2020, published 2023).

Experiments:
[1] = tested on: ALOMY; test: Herbicidal post-emergence action 1a (greenhouse pots, visual rating); type: in vivo, Alopecurus myosuroides; settings: Dosage 320 g/ha; rated visually about 3 weeks after treatment; 100% = plants have died, 0% = like control plants
Summary of the method: (§1)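 Weeds and crops sown in sandy loam in greenhouse pots were sprayed post-emergence at the one-leaf stage (2–3 weeks after sowing) with WP or EC formulations plus 0.5% additive at 600 l/ha water, 320 and/or 80 g/ha. About 3 weeks later damage was rated visually against untreated controls (0% = no effect, 100% = dead).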

[2] = tested on: ECHCG; test: Herbicidal pre-emergence action 2a (greenhouse pots, visual scoring); type: in vivo, Echinochloa crus-galli; settings: dosage 320 g/ha, visual scoring after about 3 weeks
Summary of the method: (§2)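 Weed and crop seeds placed in pots and covered with soil; aqueous suspension or emulsion of WP/EC formulation applied to the soil surface before emergence (600 l/ha, 0.5% additive, 320 and/or 80 g/ha). Pots kept in the greenhouse about 3 weeks; visual percentage scoring.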

[3] = tested on: AMARE; test: Herbicidal post-emergence action 1a (greenhouse pots, visual rating); type: in vivo, Amaranthus retroflexus; settings: visual rating about 3 weeks after treatment
Summary of the method: as §1

[4] = tested on: AVEFA; test: Herbicidal pre-emergence action 2a (greenhouse pots, visual scoring); type: in vivo, Avena fatua; settings: dosage 320 g/ha, visual scoring after about 3 weeks
Summary of the method: as §2

[5] = tested on: ABUTH; test: as above; type: in vivo, Abutilon theophrasti; settings: dosage 320 g/ha, visual scoring after about 3 weeks vs untreated controls
Text: (§3) [table] a) Seeds of monocotyledonous and dicotyledonous weed plants and crop plants are placed in plastic or organic plant pots and covered with soil. The compounds of the invention, formulated in the form of wettable powders (WP) or as emulsion concentrates (EC), are then applied onto the surface of the covering soil as aqueous suspension or emulsion with addition of 0.5% additive at a water application rate of 600 1/ha (converted). After the treatment, the pots are placed in a greenhouse and kept under good growth conditions for the trial plants. After about 3 weeks, the effect of the preparations is scored visually in comparison with untreated controls as percentages. For example, 100% activity=the plants have died, 0% activity=like control plants. Tables B1 to B15 below show the effects of selected compounds of the general formula (I) according to Tables 1 and 2 on various harmful plants and an application rate corresponding to 320 g/ha and/or 80 g/ha, which were obtained by the experimental procedure mentioned above.

[6] = tested on: LOLRI; test: Herbicidal post-emergence action 1a (greenhouse pots, visual rating); type: in vivo, Lolium rigidum; settings: rated visually about 3 weeks after treatment, 100% = plants have died, 0% = like control plants
Summary of the method: as §1

[7] = tested on: LOLRI; test: Herbicidal pre-emergence action 2a (greenhouse pots, visual scoring); type: in vivo, Lolium rigidum; settings: dosage 320 g/ha, visual scoring after about 3 weeks vs untreated controls
Summary of the method: as §2

[8] = tested on: ABUTH; test: Herbicidal post-emergence action 1a (greenhouse pots, visual rating); type: in vivo, Abutilon theophrasti; settings: visual rating about 3 weeks after treatment
Summary of the method: as §1

[9] = tested on: SETVI; test: as above; type: in vivo, Setaria viridis; settings: rated visually about 3 weeks after treatment, 100% = plants have died, 0% = like control plants
Summary of the method: as §1

[10] = tested on: ECHCG; test: as above; type: in vivo, Echinochloa crus-galli; settings: rated visually about 3 weeks after treatment, 100% = plants have died, 0% = like control plants
Summary of the method: as §1

[11] = tested on: AMARE; test: Herbicidal pre-emergence action 2a (greenhouse pots, visual scoring); type: in vivo, Amaranthus retroflexus; settings: dosage 320 g/ha, visual scoring after about 3 weeks vs untreated controls
Summary of the method: as §2

[12] = tested on: AVEFA; test: Herbicidal post-emergence action 1a (greenhouse pots, visual rating); type: in vivo, Avena fatua; settings: rated visually about 3 weeks after treatment, 100% = plants have died, 0% = like control plants
Summary of the method: as §1

[13] = tested on: ALOMY; test: Herbicidal pre-emergence action 2a (greenhouse pots, visual scoring); type: in vivo, Alopecurus myosuroides; settings: dosage 320 g/ha, visual scoring after about 3 weeks
Summary of the method: as §2

[14] = tested on: SETVI; test: as above; type: in vivo, Setaria viridis; settings: dosage 320 g/ha, visual scoring after about 3 weeks vs untreated controls
Summary of the method: as §2

[15] = tested on: POLCO; test: as above; type: in vivo, Polygonum convolvulus; settings: dosage 320 g/ha, visual scoring after about 3 weeks vs untreated controls
Summary of the method: as §2

[16] = tested on: MATIN; test: as above; type: in vivo, Matricaria inodora; settings: dosage 320 g/ha, visual scoring after about 3 weeks vs untreated controls
Summary of the method: as §2

[17] = tested on: PHBPU; test: Herbicidal post-emergence action 1a (greenhouse pots, visual rating); type: in vivo, Pharbitis purpurea; settings: visual rating about 3 weeks after treatment
Summary of the method: as §1

[18] = tested on: VERPE; test: as above; type: in vivo, Veronica persica; settings: visual rating about 3 weeks after treatment
Summary of the method: as §1

[19] = tested on: VERPE; test: Herbicidal pre-emergence action 2a (greenhouse pots, visual scoring); type: in vivo, Veronica persica; settings: dosage 320 g/ha, visual scoring after about 3 weeks vs untreated controls
Summary of the method: as §2

[20] = tested on: PHBPU; test: as above; type: in vivo, Pharbitis purpurea; settings: dosage 320 g/ha, visual scoring after about 3 weeks vs untreated controls
Text: as §3

[21] = tested on: POLCO; test: Herbicidal post-emergence action 1a (greenhouse pots, visual rating); type: in vivo, Polygonum convolvulus; settings: visual rating about 3 weeks after treatment
Summary of the method: as §1

[22] = tested on: MATIN; test: as above; type: in vivo, Matricaria inodora; settings: visual rating about 3 weeks after treatment
Summary of the method: as §1

Row | SMILES | Post-emergence action against ALOMY in % [1] [%] | Post-emergence action against AMARE in % ([3]; dosage 80 g/ha) [%] | Post-emergence action against AMARE in % ([3]; dosage 320 g/ha) [%] | Pre-emergence action against AVEFA in % [4] [%] | Pre-emergence action against ABUTH in % [5] [%] | Post-emergence action against LOLRI in % ([6]; Dosage 320 g/ha) [%] | Pre-emergence action against LOLRI in % [7] [%] | Post-emergence action against ABUTH in % ([8]; dosage 320 g/ha) [%] | Post-emergence action against SETVI in % ([9]; Dosage 80 g/ha) [%] | Post-emergence action against SETVI in % ([9]; Dosage 320 g/ha) [%] | Post-emergence action against ECHCG in % ([10]; Dosage 80 g/ha) [%] | Post-emergence action against ECHCG in % ([10]; Dosage 320 g/ha) [%] | Pre-emergence action against AMARE in % [11] [%] | Post-emergence action against AVEFA in % ([12]; Dosage 320 g/ha) [%] | Pre-emergence action against ALOMY in % [13] [%] | Pre-emergence action against SETVI in % [14] [%] | Pre-emergence action against POLCO in % [15] [%] | Pre-emergence action against MATIN in % [16] [%] | Post-emergence action against PHBPU in % ([17]; dosage 80 g/ha) [%] | Post-emergence action against PHBPU in % ([17]; dosage 320 g/ha) [%] | further results
1 | O=C(O)COc1nn(-c2cnccn2)c(-c2cncc(F)c2)c1Cl [Example I-92] | 80 | 80 | 90 | 100 | 90 | 90 | 100 | 90 | 80 | 80 | 90 | 90 | 100 | 90 | 90 | 100 | 90 | 100 | 80 | 90 | Pre-emergence action against ECHCG in % [2]: 90%; Post-emergence action against AVEFA in % ([12]; Dosage 80 g/ha): 90%; Post-emergence action against VERPE in % ([18]; dosage 80 g/ha): 80%; Post-emergence action against VERPE in % ([18]; dosage 320 g/ha): 90%; Pre-emergence action against VERPE in % [19]: 100%; Pre-emergence action against PHBPU in % [20]: 90%
2 | C[C@@H](Oc1nn(-c2cnccn2)c(-c2cncc(F)c2)c1Cl)C(=O)O [Example I-97] | 90 | 90 | 90 | 90 | 90 | 100 | 100 | 90 | 90 | 90 | 90 | 90 | 100 | 100 | 100 | 100 | 90 | 100 | 90 | 100 | Post-emergence action against POLCO in % ([21]; dosage 80 g/ha): 90%; Post-emergence action against POLCO in % ([21]; dosage 320 g/ha): 90%; Post-emergence action against LOLRI in % ([6]; Dosage 80 g/ha): 90%; Post-emergence action against ABUTH in % ([8]; dosage 80 g/ha): 90%; Post-emergence action against VERPE in % ([18]; dosage 80 g/ha): 90%; Post-emergence action against VERPE in % ([18]; dosage 320 g/ha): 90%; Post-emergence action against MATIN in % ([22]; dosage 80 g/ha): 90%; Post-emergence action against MATIN in % ([22]; dosage 320 g/ha): 90%; Pre-emergence action against VERPE in % [19]: 100%; Pre-emergence action against PHBPU in % [20]: 100%
